In patent US20240238243A1, “METHODS AND COMPOSITIONS FOR TREATMENT OF HEART FAILURE WITH PRESERVED EJECTION FRACTION” (Northwestern University, priority 2023, published 2024):

Assays:
[1] = system: ECs from ΔE1HK1 mice; assay: Tube formation assay in isolated ECs from ΔE1HK1 mice treated with ST045849; format: cell-based, mouse; details: 20 μM, FIGS. 7H and 7I
Procedure: Endothelial cells (ECs) were isolated from mouse hearts as previously described (Luo et al., 2016; van Beijnum et al., 2008). Briefly, dissected mouse heart was minced and incubated with PBS containing 2% fetal bovine serum (FBS), 1 mg/ml collagenase II (Worthington), and 0.6 U/ml dispase II (Sigma-Aldrich) for 30 mins at 37° C. 7.5 μg/ml of DNase I (Sigma-Aldrich) was added to the digested hearts and additional incubation for 30 minutes was performed. The digested material was filtered through 40 μm cell strainer, then incubated with biotinylated anti-CD45 antibody (Invitrogen) and depleted of CD45 positive cells using EasySep Mouse Streptavidin (STEMCELL technologies) as described in the manufacture's protocol. […]
The formation of tube networks was assessed as described before (Das et al., 2018). […] Following an 18 hour-incubation, tube networks from each biological replicate were analyzed in at least three random fields by light microscopy. The number of branch points (junctions), segments and meshes, and total length of tubule networks (total length of branching) were quantified by Fiji software (Angiogenesis Analyzer).

[2] = system: protein N-glycosylation in HUVEC; assay: Lectin blot with ConA-HRP of HUVEC treated with tunicamycin (dose-curve); format: cell-based, human; details: preliminary dose-curve experiments, FIG. 6M
Procedure: HUVECs were purchased from Lonza and grown in EGM2 media (Lonza). HEK293T cells were purchased from ATCC and cultured in DMEM (Corning) with 10% FBS (Bio-Techne Sales Corp.). All cells were maintained in a 37° C. incubator with 5% CO2 and were 70% to 90% confluent when collected for analyses.
Nitrocellulose membranes with blotted proteins were blocked with PBS containing 2% Tween 20 for 2 minutes at room temperature. They were rinsed with PBS twice, then incubated with 1 μg/ml of ConA-HRP (Sigma-Aldrich) in PBS containing 0.05% Tween 20, 1 mM CaCl2), 1 mM MnCl2, and 1 mM MgCl2 for 16 hours at room temperature avoiding exposure to the light. The presence of proteins conjugated with the lectin was visualized using Super Surgical Western Pico ECL substrate (Pierce). Quantification of the images was done using ImageJ (NIH).

[3] = system: genes related to UPR in HUVEC; assay: mRNA levels of genes related to UPR (Xbp1s, Hspa5) in HUVEC treated with tunicamycin; format: cell-based, human; details: FIGS. 6N and 6O
Procedure: RNA was isolated from cells or heart samples using RNA-STAT60 (Tel-Test), and reverse transcribed with Taqman Reverse Transcription Reagents (Invitrogen) according to manufacturers' instructions. Quantification of relative gene expression was done using Fast SYBR Green Master Mix (Applied Biosystems) and run on 7500 Fast Real-Time PCR system (Applied Biosystems). The relative gene expression was determined using differences in Ct values between the gene of interest and house-keeping control genes, which are Actb, Hprt1, and/or 18S, depending on the experiment.

[4] = system: HUVECs; assay: Tube formation assay in HUVECs treated with tunicamycin; format: cell-based, human; details: HUVECs, 0, 30, 50, and 100 nM, FIG. 6P
Procedure: The formation of tube networks was assessed as described before (Das et al., 2018). HUVECs and isolated ECs were seeded at 20,000 and 45,000cells per well in a 96-well plate coated with […] Matrigel (Fisher Scientific) or Cultrex (R & D Systems) reduced growth factor basement membrane matrix. The cells were treated with EGM-2 medium containing tunicamycin (Sigma-Aldrich) or ST045849 (Sigma-Aldrich) wherever mentioned. Following an 18 hour-incubation, tube networks from each biological replicate were analyzed in at least three random fields by light microscopy. The number of branch points (junctions), segments and meshes, and total length of tubule networks (total length of branching) were quantified by Fiji software (Angiogenesis Analyzer).

[5] = target: T1, OGT (Mus musculus, UniProt Q8CGY8); details: Liu et al., 2018; cited from earlier work
T1 sequence (Q8CGY8 2-1046 limits assumed): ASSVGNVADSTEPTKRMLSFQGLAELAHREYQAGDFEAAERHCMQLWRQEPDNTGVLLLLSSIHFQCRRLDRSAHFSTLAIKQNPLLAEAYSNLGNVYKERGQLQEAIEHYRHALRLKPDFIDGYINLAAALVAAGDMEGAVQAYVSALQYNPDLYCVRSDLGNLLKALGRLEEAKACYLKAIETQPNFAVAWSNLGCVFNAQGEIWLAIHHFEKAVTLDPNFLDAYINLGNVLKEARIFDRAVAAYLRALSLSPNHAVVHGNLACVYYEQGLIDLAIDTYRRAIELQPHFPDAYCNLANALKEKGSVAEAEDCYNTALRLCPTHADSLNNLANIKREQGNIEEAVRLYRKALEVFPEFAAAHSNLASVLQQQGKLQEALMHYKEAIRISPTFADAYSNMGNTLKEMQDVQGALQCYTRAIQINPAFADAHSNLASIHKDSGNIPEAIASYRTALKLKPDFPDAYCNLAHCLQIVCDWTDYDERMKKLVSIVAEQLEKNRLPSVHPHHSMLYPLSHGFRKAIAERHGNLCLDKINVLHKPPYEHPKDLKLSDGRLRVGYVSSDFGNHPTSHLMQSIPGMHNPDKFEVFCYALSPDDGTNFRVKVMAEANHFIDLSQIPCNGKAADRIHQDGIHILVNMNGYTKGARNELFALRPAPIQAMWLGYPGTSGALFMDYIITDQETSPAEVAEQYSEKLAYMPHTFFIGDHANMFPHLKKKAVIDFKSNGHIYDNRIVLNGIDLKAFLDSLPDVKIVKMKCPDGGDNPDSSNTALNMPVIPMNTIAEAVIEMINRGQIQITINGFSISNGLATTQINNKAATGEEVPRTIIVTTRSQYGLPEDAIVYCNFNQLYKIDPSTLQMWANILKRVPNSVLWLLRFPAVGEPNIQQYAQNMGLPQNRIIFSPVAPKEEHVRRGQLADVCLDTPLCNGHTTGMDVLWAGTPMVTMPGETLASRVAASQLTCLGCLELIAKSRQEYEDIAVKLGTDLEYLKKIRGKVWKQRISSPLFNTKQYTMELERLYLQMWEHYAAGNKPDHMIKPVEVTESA

[6] = system: protein O-GlcNAcylation; assay: Immunoblot of protein O-GlcNAcylation after intraperitoneal 5S-GlcNHex; format: in vivo, mouse
Procedure: Protein extracts from frozen mouse hearts, isolated cardiomyocytes, fibroblasts, endothelial cells, and HUVECs were prepared by lysis in ice-cold RIPA buffer (150 mM NaCl, 25 mM Tris-HCl pH 7.4, 1% NP-40, 1% sodium deoxycholate, 0.1% SDS) containing protease inhibitors. For analyses of O-GlcNAcylation, 200 μg/ml of PUGNAC (Sigma-Aldrich) was added to the RIPA buffer. Proteins were separated by sodium dodecyl sulfate-polyacrylamide gel electrophoresis (SDS-PAGE) on 8 or 10% polyacrylamide gels and transferred to nitrocellulose membranes. Membranes were incubated with the following primary antibodies overnight, before the addition of HRP-conjugated secondary antibodies: HK1 (2024, Cell Signaling Technology); HK2 (2867, Cell Signaling Technology); GAPDH (60004-1-Ig, Proteintech); FLAG (F1804, Sigma-Aldrich); alpha-tubulin (66031-1-Ig, Proteintech); ATP synthase C (ab181243, Abcam); Phospho-AMPKα (Thr172) (4188, Cell Signaling Technology); AMPKα (2603, Cell Signaling Technology); GFPT1 (14132-1-Ig, Proteintech); RPN1 (12894-1-AP, Proteintech); RPN2 (10576-1-AP, Proteintech); DDOST (14916-1-AP, Proteintech); GFP (66002-1-Ig, Proteintech), O-Linked N-Acetylglucosamine (ab2739, Abcam); OGT (11576-2-AP, Proteintech); OGA (66033-1-Ig, Proteintech). The presence of target protein was visualized using Super Surgical Western Pico ECL substrate (Pierce). Quantification of the western blotting images was done using ImageJ (NIH).

[7] = system: C57BL/6J mice treated with HFD_L-NAME; assay: HFD_L-NAME HFpEF mouse model: echocardiography, heart weight, treadmill exercise test; format: in vivo
Source text: HKΔE1HK1/Δ^E1HK1 (ΔE1HK1) and HK1^WT/WT wild-type (WT) control mice were generated by the Northwestern Mutagenesis and Transgenic core (De Jesus et al., 2022). Briefly, guide RNAs (gRNAs) were designed to induce a double-strand break (DSB) near the 5′ ATG start codon of HK1 in exon 1, and a DNA template containing an M-DYKDDDDK (Methionine-FLAG-tag) sequence with flanking homology arms to the HK1 gene near exon 1 was introduced into fertilized zygotes and implanted into surrogate mice. […] Mouse's genetic background is C57BL/6J. Tie2-Tet-OGA mice are generous gifts from Dr. Dillmann and Dr. Makino (Makino etal., 2015). Mice were maintained in the barrier facility at Northwestern University under specific pathogen-free conditions under the Federal and University guidelines and protocols approved by Institutional Animal Care and Use Committee (IACUC) with 12 hr light and 12 hr dark cycles and received normal chow (NC). Male and female ΔE1HK1 mice were used at 8-40 weeks of age. 8-week-old ΔE1HK1 male mice were fed HFD consisting of 60% fat, 20% protein, and 20% carbohydrates for 20 weeks. To produce the HFpEF mice model, C57BL/6J and Tie2-Tet-OGA mice were fed HFD and 0.5 g/L ofN.-Nitro-L-arginine methyl ester (LNAME, Sigma-Aldrich) for 8-15 weeks. For the induction of OGA overexpression, 0.5 g/L of DOX in drinking water was administered to Tie2-Tet-OGA mice until they were sacrificed. All animal studies were approved by the IACUC at Northwestern University and were performed in accordance with guidelines from the National Institutes of Health.
Mice were anesthetized using isoflurane via a nasal cone, the chest was shaved, and the temperature of the mice was maintained at 37° C. The heart rate was continually monitored. Transthoracic echocardiography was performed using a VisualSonics Vevo 2100 system equipped with an MS400 transducer (FUJIFILM). LVEF and other indices of systolic function and thickness of LV walls were obtained from short-axis M-mode scans at the midventricular level, as indicated by the presence of papillary muscles. Apical four-chamber views were obtained for diastolic function measurements using pulsed-wave and tissue doppler imaging at the level of the mitral valve. During echocardiogram acquisition, isoflurane was maintained in 1.0-1.5% to maintain a heart rate in the range of 400-450 beats per min. All parameters were measured at least three times, and means are presented.
The exercise exhaustion test was performed as previously described (Schiattarella et al., 2019). After three days of acclimatization to treadmill exercise, an exhaustion test was performed in the experimental groups of mice. Mice ran uphill (20°) on the treadmill (Columbus Instruments) starting at a warm-up speed of 5 m/min for 3 min after which speed was increased to 14 m/min for 2 min. Every subsequent 2 min, the speed was increased by 2 m/min until the mouse was exhausted. Exhaustion was defined as the inability of the mouse to return to running within 10 s of direct contact with an electric-stimulus grid. Running time was measured and running distance calculated.

[8] = isolated ECs, intraperitoneal, dose dependency study, FIG. 9A
[9] = single intraperitoneal injection of 50 mg/kg, FIG. 9M
[10] = 30 mg/kg every 48 hours for 10 weeks following 5 weeks of HFD_L-NAME
[11] = 50 mg/kg for 3 weeks following 5 weeks of HFD_L-NAME
[12] = 20 and 30 mg/kg every 48 hours for 10 weeks following 5 weeks of HFD_L-NAME

O=C(O)C1CC(=O)N(CCC23CC4CC(CC(C4)C2)C3)C(=Nc2ccc(Cl)cc2)S1 (stereo not shown) [ST045849]
tube formation: number of junctions [1]: significant enhancement | tube formation: total length of branching [1]: significant enhancement

tunicamycin
concentration at which reduced protein N-glycosylation was confirmed [2]: 20 nM | concentration at which reduction of protein N-glycosylation reaches plateau [2]: 50 nM | mRNA levels of genes related to UPR [3]: acted in the same manner as observed in N-glycosylation experiments | tube formation (number of junctions, total length of branching) [4]: no significant effects

CCCCCC(=O)N[C@H]1C(O)S[C@H](CO)[C@@H](O)[C@@H]1O (stereo partly drawn) [5S-GlcNHex, 2-deoxy-2-N-hexanamide-5-thio-D-glucopyranoside]
in vivo efficacy among OGT inhibitors [5]: significant in vivo efficacy | dose at which reduction of protein O-GlcNAcylation reached a plateau [6, 8]: 30 mg/kg | dose that initiated the reduction of protein O-GlcNAcylation [6, 8]: 20 mg/kg | protein O-GlcNAcylation in various organs ([6]; single intraperitoneal injection of 50 mg/kg, C57BL6/J mice): effectively curtailed | time after which protein O-GlcNAcylation returns to baseline [6, 9]: 72 h | time over which protein O-GlcNAcylation is reduced [6, 9]: 48 h | protein O-GlcNAcylation in ECs in vivo ([6]; summary statement): successfully reduces | increased E/A ratio ([7]; 20 mg/kg every 48 hours for 10 weeks following 5 weeks of HFD_L-NAME): reversed | exercise capacity (treadmill test) [7, 10]: significant improvement | increased E/A ratio [7, 10]: reversed | EF [7, 11]: no discernable effects | cardiac hypertrophy as indicated by PWTd [7, 11]: ameliorated | cardiac hypertrophy as indicated by heart weights [7, 11]: ameliorated | decreased e' [7, 11]: substantially restored | increased E/A [7, 11]: substantially restored | increased E/e' [7, 11]: substantially restored | increased LA area [7, 11]: substantially restored | HFpEF phenotype ([7]; 50 mg/kg, FIGS. 9M-9X): reverses the HFpEF phenotype | EF [7, 12]: no significant changes | LV diameter in systole (LVDs) [7, 12]: no significant changes | LVDd [7, 12]: no significant changes | fraction shortening (FS) [7, 12]: no significant changes | increased LA sizes [7, 12]: tendency to decrease | increased heart weights [7, 12]: tendency to decrease | HFpEF phenotype ([7]; summary statement): reversal of the HFpEF phenotype
